Results from patent US12023318B2, “Therapy for Inflammatory Linear Verrucous Epidermal Nevus (ILVEN)” (UCL Business Ltd, priority 2018, dated 2024).

Test system: Inflammatory Linear Verrucous Epidermal Nevus (ILVEN)
Experiment: Topical cholesterol/simvastatin treatment of patients with ILVEN
Type: in vivo, human
Conditions: patient 9, localised ILVEN left arm; tried after no response to cholesterol/simvastatin
From the text: Fourteen patients with ILVEN were recruited. Photographs were taken of all cases as a baseline. DNA was extracted directly from lymphocytes and from affected skin biopsy without culture, using standard methods. Where possible a second skin biopsy of affected skin was also obtained for primary keratinocyte culture and immortalization with HPV to establish a stable cell line. In a minority of cases a skin biopsy of normal skin was also taken for keratinocyte culture and immortalization. Histopathology of affected skin was obtained in all cases. Thirteen of the fourteen patients were treated with […]/2% simvastatin in Unguentum Merck, applied topically twice a day for a minimum period of three months in the first instance, and only applied to one designated area of affected skin, using the rest of the skin as an internal control. If there was no response in this time the treatment was stopped. Where there was a positive response the treatment has been continued, and extended gradually to different body areas.

CC(C)CCC[C@@H](C)[C@H]1CC[C@H]2[C@@H]3CC=C4C[C@@H](O)CC[C@]4(C)[C@H]3CC[C@]12C [cholesterol, Cholesterol]
Response to cholesterol only: no
